Data: US20100035822A1, “PROLINE-RICH PEPTIDES, PHARMACEUTICAL COMPOSITION, USE OF ONE OR MORE PEPTIDES AND METHOD OF TREATMENT” (priority 2006, published 2010)
Entries after “also recorded” stand apart in the source; their conditions may differ. Square brackets hold non-standard residues; d marks the D form. Ends that are not written are not given here. Peptide text beside a SMILES is read from it. pGlu = O=C1CC[C@@H](C(=O)O)N1

Legend:
[1] = Bioavailability / tissue distribution of 125I-labelled peptide in mice; type: in vivo, mouse
From the text: Peptide SEQ ID NO 8 was labeled with ^125I according to Greenwood and Hunter (Greenwood F C and Hunter W M. The preparation of ^125I-labelled human growth hormone of high specific radioactivity. J. Biochem., 89:114-123, 1963), with modifications [Biscayart P L, Paladini A C, Vita N, Roguin L P. Preparation of ^125I-labeled human growth hormone of high quality binding properties endowed with long-term stability. J. Immunoassay, 10, 37-56, 1989; Ribela et al., Protein Exp. Purif., 18(2):115-200, 2000). Under constant shaking, 5 μg of the synthetic SEQ ID NO 8 peptide in PBS were mixed with 1 mCi of ^125I, and 0.8 μg of chloramines T. After 5 minutes, 1 μg metabisulfite and 200 μg potassium iodine were added to finalize the labeling reaction. Purification of the labeled product was performed by reverse-phase chromatography in a disposable micro-column (Sep-Pak C18, Waters) as described by Christophe et al. [Christophe et al., The synthetic peptide trp-lys-tyr-met-val-met-NH2 specifically activates neutrophils through FPRL1/lipoxin A4 receptors and is an agonist for the orphan monocyte-expressed chemoattractant receptor FPRL2. J. Biol. Chem. 276: 21585-21593, 2001]. The reaction product was diluted in three volumes of destined water, and applied to the column that had been pre-treated with destined water. Potassium iodine (5 mM, 20 mL) was added, and the column was washed twice with 20 mL distilled water. The labeled peptide was eluted with 2 mL 100% methanol, and 5 μl aliquots were analyzed in the gamma radiation counter from Nuclear Chicago. […]
The animals were anesthetized after 1, 5, 15, 30, 45, 60, 120 and 180 min after injection, and killed by cervical dislocation, and organs (heart, spleen, liver, kidney, intestines, stomach, thyroid, testicles, and brain) were removed, flushed free of blood with 0.9% saline, and weighed. The radioactivity of each organ was determined in a gamma counter. […]
The dose percentage present in each organ was determined, using an administered dose standard. Radioactivity values were registered, given in dose percentage/mg of tissue.

[2] = Determination of Z-pro metabolites in mice urine; type: in vivo, mouse; conditions: for Metabolites in the urine: mice, 0.91 mg/Kg intraperitoneally, urine collected after 24 hours, mass spectrometry
Experimental: In vivo hydrolysis of peptides SEQ ID NO 1, SEQ ID NO 4, SEQ ID NO 5, SEQ ID NO 8, and SEQ ID NO 15 was investigated in Swiss male mice weighing approximately 22-25 g, which had free access to food and water, and were kept under a light-dark cycle of 12 hour periods.
Groups of 10 mice were treated intraperitoneally with 0.91 mg/Kg of each proline rich oligopeptide per animal, diluted in 200 μl saline. Treated and control animals (not treated) were kept in metabolic cages, and their urine was collected after 24 hours. The urine was pre-purified in a reverse phase Sep-Pak C18 micro column (Waters), which had been previously equilibrated with solvent A (H2O/0.1% TFA). Samples were eluted with 60% solvent B (90% acetonitrile/10% solvent A), lyophilized, and resuspended in 1 ml deionized water to be centrifuged at 14.000 rpm for 5 minutes. The supernatant (500 μl) was fractionated in an analytic HPLC system. The gradient was 5-65% solvent B for 30 minutes, using a flow rate of 1 ml/min and monitoring at 214 nm. Fractions were lyophilized and ressuspended in acetonitrile/H2O (1:1), containing 0.2% formic acid, and were analyzed by mass spectrometry (Q-TOF-Pro). Urine fractions from control and treated animals were compared to determine the presence of metabolites originated from the peptides being tested.

[3] = test system: SK-N-AS cells (human neuroblastoma); assay: Free intracellular Ca2+ concentration in SK-N-AS cells (fluo-3 AM, confocal microscopy); type: cell-based
Experimental: In these experiments the variation in free intracellular calcium [Ca^2+]i concentration was measured in SK-N-AS cells (human neuroblastoma, ATCC No. CRL-2137) after addition of 1 μmolar of peptides SEQ ID NO 1 or SEQ ID NO 8, or of 1 μmolar captopril. Cells were kept in DMEM (Dulbecco Modified Medium), supplemented with 10% fetal bovine serum (FBS) and 1% non-essential amino acids, at 5% CO2 atmosphere, at 37° C., and 95% relative humidity. Cells were treated with trypsin, and replicated at adequate cell concentrations.
Measurements of variation in the concentration of free [Ca^2+]i were performed with a confocal microscope LSM 510 (Zeiss, Jena, Germany), as described by Martins et al., (Martins et al., Neuronal differentiation of P19 embryonal carcinoma cells modulates kinin B2 receptor gene expression and function. J. Biol. Chem. 280: 19576-19586, 2005). Approximately 5×10^4 SK-N-AS cells were plated on 60 mm plates 24 hours prior to measurement, and then treated with 4 μM fluo-3 AM (Invitrogen Corporation) in 0.5% DMSO and 0.1% non-ionic surfactant pluronic acid F-127 for 30 minutes at 37° C. Cells were washed with DMEM containing 10% FBS, and transferred to defined medium (5 μg/ml insulin, 30 μg/ml transferrin, 20 μM ethanolamine, 30 nM sodium selenite, 1 μM sodium pyruvate, 1% non-essential amino acids, 1 mM glutamine, 100 μg/ml penicillin, 100 μg/ml streptomycin, 10 mM HEPES pH 7.4 in DMEM). The fluorescent fluo-3 AM was excited at 488 nm, and the fluorescence measured at 526 nm.
Variations in the [Ca^2+]i were measured in non-stimulated cells, and in cells stimulated with peptides SEQ ID NO 1 or SEQ ID NO 8, or with captopril (Sigma Aldrich). Increase of fluorescence was monitored for 2 minutes, and images were acquired in 256×256 pixels every second. At the end of each experiment, 5 μM ionophore (4-Br-A23187) were added, followed by 10 mM EGTA, or 20 μM digitonin to determine maximum and minimum fluorescence, Fmax and Fmin respectively, as described by Grynkiewicz et al., (1985).
Intracellular calcium concentrations [Ca^2+]i, related to fluorescence (F) values obtained after addition of peptides SEQ ID NO 1 or SEQ ID NO 8, were calculated with the equation: [Ca^2+]=Kd(F−Fmin)/(Fmax−F), assuming Kd=450 nM for fluo-3 AM (Hallett et al., 1990).

[4] = target: T1, argininosuccinate synthase (AsS) (Mus musculus, UniProt P16460); assay: Potentiation of argininosuccinate synthase activity (phosphate generated from ATP); type: biochemical; conditions: AsS activated by SEQ ID NO 8
T1 construct: Cytosolic and membrane fractions of the renal extract (100 mg/ml total protein) were applied to separate columns; from tissue; host or cells: Balb-c mouse kidney, cytosolic and membrane fractions
T1 sequence (P16460 1-412): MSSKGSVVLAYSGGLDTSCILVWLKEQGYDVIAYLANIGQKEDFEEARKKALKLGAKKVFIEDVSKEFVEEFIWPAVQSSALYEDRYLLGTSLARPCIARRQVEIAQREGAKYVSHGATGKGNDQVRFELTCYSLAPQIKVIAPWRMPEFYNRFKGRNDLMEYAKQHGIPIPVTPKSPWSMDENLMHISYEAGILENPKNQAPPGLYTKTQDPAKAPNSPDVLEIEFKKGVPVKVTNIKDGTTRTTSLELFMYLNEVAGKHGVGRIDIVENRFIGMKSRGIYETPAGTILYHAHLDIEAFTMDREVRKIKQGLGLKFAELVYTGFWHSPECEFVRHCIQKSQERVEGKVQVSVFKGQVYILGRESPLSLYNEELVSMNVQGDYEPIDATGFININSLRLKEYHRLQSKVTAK
Experimental: Activation of the AsS enzyme of Example 3 by peptide SEQ ID NO 8 was quantified in vitro according to Hao et al. [Hao G., Xie L., Gross S. S. Argininosuccinate synthetase is reversibly inactivated by S-nitrosylation in vitro and in vivo. J. Biol. Chem., 279:36192-36200 (2004)]. This method is based on measuring the quantity of phosphate generated from ATP, when pyrophosphatase is added to the reaction medium. Since the activity of the pyrophosphatase relates directly to the enzymatic activity of the AsS, the quantity of generated pyrophosphate is a direct measurement of the AsS activity.
The AsS enzyme (1 μg) was added to the reaction mixture containing 20 mM Tris-HCl, pH 7.8, 2 mM ATP, 2 mM citrulline, 2 mM aspartate, 6 mM MgCl2, 20 mM KCl, and 0.2 units of pyrophosphatase in a final volume of 200 μL in 96 well microplates. Increasing quantities of the SEQ ID NO 8 peptide (0.5, 1 to 8 μM) were added, and samples were incubated at 37° C. for 60 minutes. The reaction was interrupted by the addition of 200 μL of ammonium molybdate buffer (10 mM ascorbic acid, 2.5 mM ammonium molybdate, 2% sulphuric acid). Resulting phosphate was determined in the samples by spectrophotometry (absorbance at 650 nm), using a standard curve obtained with inorganic phosphate.
The production rate of phosphate (enzymatic activity of the AsS) was activated up to approximately 2.5 fold upon addition of 2 μM peptide SEQ ID NO 8. […] Accessibility of endothelial and inducible nitric oxide synthase to the intracellular citrulline-arginine regeneration pathway. Biochem. Pharmacol. 69: 97-104, 2005].

SEQ ID NO 8/^125I: synthetic oligopeptide SEQ ID NO 8 labeled with ^125I ([pGlu]NWPHPQIPP; also: 125I label, place not given here)
kidney concentration relative to other tissues per gram of tissue [1]: higher than 10 fold | share of the concentration of the injected dose remaining in the kidneys ([1]; kidney): approximately 15% | time the radioactivity remains in the kidneys ([1]; kidney): > 3 h

<EWGRPPGPPIPP [SEQ ID NO 14]
Metabolites in the urine [2]: <EWGRPPGPPIPP

CC[C@H](C)[C@H](NC(=O)[C@@H]1CCCN1C(=O)CNC(=O)[C@H](CC(=O)O)NC(=O)[C@@H]1CCC(=O)N1)C(=O)N1CCC[C@H]1C(=O)N1CCC[C@H]1C(=O)O [SEQ ID NO 4, <EDGPIPP] ([pGlu]DGPIPP-OH)
Metabolites in the urine [2]: <EDGPIPP

<EKWAP [SEQ ID NO 1]
time from the peak until the [Ca2+]i plateau [3]: 20 s | change of intracellular [Ca2+]i ([3]; 1 μM): Increase | [Ca2+]i response peak ([3]; immediately after addition of the peptide): approximately 350 nM | form in which the peptide is excreted in urine ([2]; mice injected intraperitoneally): exception | Metabolites in the urine [2]: <EKW

CC(N)(CC(=O)O)C(=O)O (racemic) [MDLA, α-methyl-DL-aspartic acid, reference compound]
effect of the inhibitor on AsS activation by peptide SEQ ID NO 8 [4]: completely blocked; also recorded: completely inhibited

CC[C@H](C)[C@H](NC(=O)[C@H](CCC(N)=O)NC(=O)[C@@H]1CCCN1C(=O)[C@H](CCCNC(=N)N)NC(=O)[C@@H]1CCCN1C(=O)[C@H](Cc1c[nH]c2ccccc12)NC(=O)[C@@H]1CCC(=O)N1)C(=O)N1CCC[C@H]1C(=O)N1CCC[C@H]1C(=O)O [SEQ ID NO 5, <EWPRPQIPP]
Metabolites in the urine ([2]; 0.91 mg/kg): <EWPRPQIP; also recorded: <EWPRP; also recorded: <EWPRPQIPP
